Experimental data as given in a melting point compilation (Tetko et al.; mined from patent text by program, amines drawn as free bases though some values may be those of a salt).

| melting point | Structure (SMILES) |
| --- | --- |
| 248 to 249 °C | Nc1c(F)c(N2C[C@H](CF)[C@H](N)C2)c(F)c2c1c(=O)c(C(=O)O)cn2C1CC1 (relative stereo) |
| 175 °C | Nc1nc2c(c(=O)[nH]1)n(Cc1ccccc1)c(=O)n2C1OC(CO)C(O)C1O (centres undefined) |
| 168 to 171 °C | CC(=O)Nc1cccc(-c2ccccc2S(=O)(=O)Nc2onc(C)c2C)c1 |
| 307 to 309 °C | Oc1ccc(-c2nc3cccc(O)c3[nH]2)cc1C12CC3CC(CC(C3)C1)C2 |
| 196 to 197 °C | CC(N=c1[nH]c(-c2ccccc2)c(-c2ccnc(Nc3ccccc3)n2)s1)N(C)C (centres undefined) |
| 105 to 107 °C | CC1(C)CON(CC2=C(Cl)CC(=NCc3ccccc3O)C=C2)C1=O |
| 400 °C | Nc1c(O)c2ccccc2oc1=O |
| 271 to 273 °C | O=C1Nc2cccc(-c3ccc(O)cc3)c2/C1=C/c1ccc[nH]1 |
| 186 to 190 °C | CCc1nc(NC)sc1C(=O)c1ccc(Cl)c([N+](=O)[O-])c1 |
| 92 to 94 °C | CC1(C)OCC(N2CCC(Cc3ccccc3)CC2)O1 (centres undefined) |
| 184 to 186 °C | CC(=O)NC[C@H]1CN(c2ccc(N3CCC(O)(CN4CCOCC4)CC3)c(F)c2)C(=O)O1 |
| 153 to 155 °C | Cc1cccc(-c2[nH]c(C(C)C)nc2-c2ccc(F)c(-c3ccc(C(=O)NN4CCOCC4)cc3)c2)n1 |
| 86 to 88 °C | CNC(=O)C(=NOCF)c1ccccc1COc1ccccc1C |

Further lines, the compound ahead of its results:

| Structure (SMILES) | melting point |
| --- | --- |
| CCCc1c(OCCCOc2ccc(-c3cc[nH]n3)c(OC)c2CCC)ccc2c1OC(C(=O)O)CC2 (centres undefined) | 156 to 158 °C |
| COc1cc(C=O)ccc1OCC(=O)c1cc(C(C)(C)C)c(O)c(C(C)(C)C)c1 | 99 to 100 °C |
| Cc1ccc(NC(=O)NCc2cccc3c2CN(C2CCC(=O)NC2=O)C3=O)cc1Cl (centres undefined) | > 260 °C |
| CC(=O)CSc1c([N+](=O)[O-])ccc(F)c1Cl | 91 to 92 °C |
| CC(=O)OC1CCC2(C)C(=CCC3C2CCC2(C)C(n4ccnc4)=C(C=O)CC32)C1 (centres undefined) | 218 to 220 °C |
| CCCCc1ccc(NC(=O)CN(C)C)c(N)c1 | 66 to 68 °C |
| Cc1nc(Cl)c([N+](=O)[O-])c(NCCNC(=O)OC(C)(C)C)c1C | 110 to 112 °C |
| Cc1cnnc2c1C(=O)CC(c1ccccc1Cl)C2 (centres undefined) | 108 to 109 °C |
| CC(C)(C)OC(=O)[C@@H]1CCCN1C[C@@H](O)[C@H](Cc1ccc(F)cc1)NC(=O)[C@H](CC(N)=O)NC(=O)OCc1ccccc1 | 163 to 164 °C |
| COC(=O)C1CC2c3cccc4c3C(CN4)CC2N(C)C1 (centres undefined) | 110 to 120 °C |
| Cc1nc(NCCN2CCOCC2)c2nc(-c3ccccc3)cc-2[nH]1 | > 280 °C |
| CC1CCCC=C1c1ccc(C(=O)O)cc1 (centres undefined) | 146 to 147 °C |
| CC(C)N(CCC(CCN(C(C)C)C(C)C)(C(N)=O)c1ccc(-c2ccccc2)cc1)C(C)C | 110 to 111 °C |
| CC(C)(CO)NS(=O)(=O)c1cccc(NC(=O)c2cnn3c(C(F)(F)F)cc(-c4ccc(C(F)(F)F)cc4)nc23)c1 | 227 °C |
| O=C(c1cc(Cl)cc(Cl)c1)c1cc(Cl)cc(Cl)c1 | 157 °C |
| c1cnc2c(c1)-c1sccc1C2Cc1ccncc1 (centres undefined) | 178 to 181 °C |
| COCCOc1cc2ncc(C#N)c(Cl)c2cc1OCc1ccccc1 | 142 to 145 °C |
| OCC1(Cc2ccccc2)CCC2(CC1)OCCO2 | 76 to 78 °C |
| COC(=O)C1(C)Cc2c([nH]c3ccc(OC)cc23)C(c2ccccc2)N1 (centres undefined) | 172 to 175 °C |
| COC(=O)CCc1cc2ccc(C(F)(F)F)cc2[nH]1 | 108 to 110 °C |
| COc1ccc(C(=O)Cc2c(Cl)cncc2Cl)c2c(CC(=O)OCc3ccccc3)coc12 | 132 to 133 °C |
| O=S(=O)(NCC(O)(Cn1cncn1)c1ccc(F)cc1F)c1ccc(F)cc1 (centres undefined) | 140 to 146 °C |
| CC1Oc2ccc(CN3CCN(CC(=O)NC4CC4)CC3)cc2NC1=O (centres undefined) | 180 to 181 °C |
| CCCCC(COc1cccc(COc2cccc3cccnc23)c1)OC(C)=O (centres undefined) | 85 to 86 °C |
| Cc1cc(C)c(S(=O)(=O)ON)c(C)c1 | 90 to 91 °C |
| NC(C=C(CCCCO)CP(=O)(O)O)C(=O)O (centres undefined) | 152 to 155 °C |
